Where “and” joins values, the source holds several entries; their conditions need not be identical. Equal entries are not always repeated. Inconclusive results and toxic doses are left out.
Test system: CD2F1 mice, L1210 leukemia ip, survival T/C
Assay: NCI In Vivo Anticancer Drug Screen. Data for tumor model L1210 Leukemia (intraperitoneal) in CD2F1 (CDF1) mice
Settings: higher = longer survival
Method in brief: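 Mice carrying a transplanted tumor received test compound or vehicle alone. The value is the measurement in the treated group divided by that in the vehicle-treated control group.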

[1] = endpoint: mean survival time, dose: 100.0 mg/kg/injection, schedule: Q04DX002 (ip), vehicle: saline with Tween-80
[2] = endpoint: mean survival time, dose: 200.0 mg/kg/injection, schedule: Q04DX002 (ip), vehicle: saline with Tween-80
[3] = endpoint: mean survival time, dose: 400.0 mg/kg/injection, schedule: Q04DX002 (ip), vehicle: saline with Tween-80
[4] = endpoint: mean survival time, dose: 100.0 mg/kg/injection, schedule: Q01DX009 (ip), vehicle: saline with Tween-80
[5] = endpoint: mean survival time, dose: 200.0 mg/kg/injection, schedule: Q01DX009 (ip), vehicle: saline with Tween-80
[6] = endpoint: mean survival time, dose: 100.0 mg/kg/injection, schedule: Q01DX001 (ip), vehicle: saline with Tween-80
[7] = endpoint: mean survival time, dose: 200.0 mg/kg/injection, schedule: Q01DX001 (ip), vehicle: saline with Tween-80
[8] = endpoint: mean survival time, dose: 400.0 mg/kg/injection, schedule: Q01DX001 (ip), vehicle: saline with Tween-80
[9] = endpoint: mean survival time, dose: 75.0 mg/kg/injection, schedule: Q01DX001 (ip), vehicle: saline
[10] = endpoint: mean survival time, dose: 150.0 mg/kg/injection, schedule: Q01DX001 (ip), vehicle: saline
[11] = endpoint: mean survival time, dose: 300.0 mg/kg/injection, schedule: Q01DX001 (ip), vehicle: saline
[12] = endpoint: mean survival time, dose: 100.0 mg/kg/injection, schedule: Q04DX003 (ip), vehicle: saline with Tween-80
[13] = endpoint: mean survival time, dose: 200.0 mg/kg/injection, schedule: Q04DX003 (ip), vehicle: saline with Tween-80
[14] = endpoint: mean survival time, dose: 400.0 mg/kg/injection, schedule: Q01DX009 (ip), vehicle: saline with Tween-80
[15] = endpoint: mean survival time, dose: 400.0 mg/kg/injection, schedule: Q04DX003 (ip), vehicle: saline with Tween-80

O=C(O)C1CCCN1C(=O)C(CSC(c1ccccc1)(c1ccccc1)c1ccccc1)NC(c1ccccc1)(c1ccccc1)c1ccccc1 (stereo not drawn)
T/C (endpoint: mean survival time, dose: 50.0 mg/kg/injection, schedule: Q01DX009 (ip), vehicle: saline): 101 % of control | T/C (endpoint: mean survival time, dose: 100.0 mg/kg/injection, schedule: Q01DX009 (ip), vehicle: saline): 97 % of control | T/C (endpoint: mean survival time, dose: 200.0 mg/kg/injection, schedule: Q01DX009 (ip), vehicle: saline): 98 % of control | T/C (endpoint: mean survival time, dose: 400.0 mg/kg/injection, schedule: Q01DX009 (ip), vehicle: saline): 97 % of control

C/C(=N\Nc1ccc2ccccc2n1)c1ccccc1O
T/C [1]: 98 % of control | T/C [2]: 98 % of control | T/C [3]: 110 % of control

CCNC(=S)Nc1ccccc1
T/C (endpoint: mean survival time, dose: 50.0 mg/kg/injection, schedule: Q01DX009 (ip), vehicle: saline with Tween-80): 103 % of control | T/C [4]: 100 % of control | T/C [5]: 111 % of control

[Cl][Pt][Cl].c1ccc([PH+](c2ccccc2)c2ccccc2)cc1.c1ccc([PH+](c2ccccc2)c2ccccc2)cc1
T/C [6]: 95 % of control | T/C [7]: 92 % of control | T/C [8]: 92 % of control

CN(C)CC1CCCCC(Br)C1=O (stereo not drawn)
T/C [9]: 98 % of control | T/C [10]: 107 % of control | T/C [11]: 117 % of control

CN(C)C(=O)On1cccc1C#N
T/C (endpoint: mean survival time, dose: 0.78 mg/kg/injection, schedule: Q01DX001 (ip), vehicle: saline): 95 % of control | T/C (endpoint: mean survival time, dose: 1.56 mg/kg/injection, schedule: Q01DX001 (ip), vehicle: saline): 98 % of control | T/C (endpoint: mean survival time, dose: 3.13 mg/kg/injection, schedule: Q01DX001 (ip), vehicle: saline): 98 % of control

O=c1cn[nH]c2cc(Cl)ccc12
T/C [4]: 91 % of control | T/C [12]: 100 % of control | T/C [5]: 101 % of control | T/C [13]: 105 % of control | T/C [14]: 92 % of control | T/C [15]: 97 % of control

COC(=O)C(Br)C(OC)c1ccc(C)cc1 (stereo not drawn)
T/C [4]: 94 % of control | T/C (endpoint: mean survival time, dose: 100.0 mg/kg/injection, schedule: Q04DX003 (ip), vehicle: saline sonified): 95 % of control | T/C [5]: 96 % of control | T/C (endpoint: mean survival time, dose: 200.0 mg/kg/injection, schedule: Q04DX003 (ip), vehicle: saline sonified): 91 % of control | T/C [14]: 90 % of control | T/C (endpoint: mean survival time, dose: 400.0 mg/kg/injection, schedule: Q04DX003 (ip), vehicle: saline sonified): 101 % of control

COc1cc(CC#N)ccc1OCc1ccccc1
T/C (endpoint: mean survival time, dose: 12.5 mg/kg/injection, schedule: Q01DX009 (ip), vehicle: other): 102 % of control | T/C (endpoint: mean survival time, dose: 25.0 mg/kg/injection, schedule: Q01DX009 (ip), vehicle: other): 101 % of control | T/C (endpoint: mean survival time, dose: 25.0 mg/kg/injection, schedule: Q04DX003 (ip), vehicle: other): 102 % of control | T/C (endpoint: mean survival time, dose: 50.0 mg/kg/injection, schedule: Q01DX009 (ip), vehicle: other): 100 % of control | T/C (endpoint: mean survival time, dose: 50.0 mg/kg/injection, schedule: Q04DX003 (ip), vehicle: other): 96 % of control | T/C (endpoint: mean survival time, dose: 100.0 mg/kg/injection, schedule: Q04DX003 (ip), vehicle: other): 103 % of control

O=C(CCN1C(=O)c2ccccc2C1=O)c1ccccc1
T/C [1]: 95 % of control | T/C [2]: 89 % of control | T/C [3]: 92 % of control

CCOc1cc(C)cc(C(=O)O)c1
T/C [1]: 97 % of control | T/C [2]: 90 % of control | T/C [3]: 97 % of control

Cn1c(=O)[nH]c2nncnc2c1=O
T/C (endpoint: mean survival time, dose: 2.0 mg/kg/injection, schedule: Q01DX009 (ip), vehicle: water): 103 % of control | T/C (endpoint: mean survival time, dose: 4.0 mg/kg/injection, schedule: Q01DX009 (ip), vehicle: water): 97 % of control | T/C (endpoint: mean survival time, dose: 8.0 mg/kg/injection, schedule: Q01DX009 (ip), vehicle: water): 97 % of control | T/C (endpoint: mean survival time, dose: 16.0 mg/kg/injection, schedule: Q01DX009 (ip), vehicle: water): 98 % of control | T/C (endpoint: mean survival time, dose: 32.0 mg/kg/injection, schedule: Q01DX009 (ip), vehicle: water): 101 % of control | T/C (endpoint: mean survival time, dose: 375.0 micrograms/kg/injection, schedule: Q01DX009 (ip), vehicle: saline): 100 % of control | T/C (endpoint: mean survival time, dose: 750.0 micrograms/kg/injection, schedule: Q01DX009 (ip), vehicle: saline): 104 % of control | T/C (endpoint: mean survival time, dose: 1500.0 micrograms/kg/injection, schedule: Q01DX009 (ip), vehicle: saline): 100 % of control | T/C (endpoint: mean survival time, dose: 3000.0 micrograms/kg/injection, schedule: Q01DX009 (ip), vehicle: saline): 100 % of control

CCCCCCCN(CCCCCCC)CC(OC(C)=O)c1cc2ccccc2c2cc(Br)ccc12 (stereo not drawn)
T/C [12]: 98 % of control | T/C [13]: 101 % of control | T/C [15]: 104 % of control

O=C(O)COc1ccc(-c2ccccc2)cc1
T/C [12]: 104 % of control | T/C [13]: 90 % of control | T/C [15]: 101 % of control

C=CCSc1cccc(C)c1
T/C (endpoint: mean survival time, dose: 100.0 mg/kg/injection, schedule: Q01DX001 (ip), vehicle: saline): 96 % of control | T/C (endpoint: mean survival time, dose: 200.0 mg/kg/injection, schedule: Q01DX001 (ip), vehicle: saline): 97 % of control

CCCCCCC(C)(O)CCCCCC
T/C [6]: 93 % of control | T/C [7]: 96 % of control | T/C [8]: 101 % of control

CNCCC(=N)C(=N)CCNC
T/C (endpoint: mean survival time, dose: 100.0 mg/kg/injection, schedule: Q04DX002 (ip), vehicle: saline): 111 % of control | T/C (endpoint: mean survival time, dose: 200.0 mg/kg/injection, schedule: Q04DX002 (ip), vehicle: saline): 106 % of control | T/C (endpoint: mean survival time, dose: 400.0 mg/kg/injection, schedule: Q04DX002 (ip), vehicle: saline): 103 % of control

CCN(CC)C1=C(Cl)C(=O)C(=O)c2cccnc21
T/C (endpoint: mean survival time, dose: 9.4 mg/kg/injection, schedule: Q01DX009 (ip), vehicle: saline): 101 % of control

O=C(C1=CC=CC1=P(c1ccccc1)(c1ccccc1)c1ccccc1)C(Cl)(Cl)Cl
T/C [4]: 94 % of control | T/C [5]: 107 % of control | T/C [14]: 107 % of control

CCCC1(c2ccccc2)C(=O)NCNC1=O
T/C (endpoint: median survival time, dose: 25.0 mg/kg/injection, schedule: Q01DX005 (ip), vehicle: Klucel (hydroxypropylcellulose) (HPC)): 101 % of control | T/C (endpoint: median survival time, dose: 50.0 mg/kg/injection, schedule: Q01DX005 (ip), vehicle: Klucel (hydroxypropylcellulose) (HPC)): 97 % of control | T/C (endpoint: median survival time, dose: 100.0 mg/kg/injection, schedule: Q01DX005 (ip), vehicle: Klucel (hydroxypropylcellulose) (HPC)): 97 % of control | T/C (endpoint: median survival time, dose: 200.0 mg/kg/injection, schedule: Q01DX005 (ip), vehicle: Klucel (hydroxypropylcellulose) (HPC)): 94 % of control | T/C (endpoint: median survival time, dose: 400.0 mg/kg/injection, schedule: Q01DX005 (ip), vehicle: Klucel (hydroxypropylcellulose) (HPC)): 104 % of control

CC(=O)Nc1ccc(S(=O)(=O)OCCCl)cc1
T/C [12]: 96 % of control | T/C [13]: 110 % of control | T/C [15]: 102 % of control

c1coc(CNC2=NCCO2)c1
T/C (endpoint: mean survival time, dose: 100.0 mg/kg/injection, schedule: Q01DX001 (ip), vehicle: other): 95 % of control | T/C (endpoint: mean survival time, dose: 200.0 mg/kg/injection, schedule: Q01DX001 (ip), vehicle: other): 103 % of control | T/C (endpoint: mean survival time, dose: 400.0 mg/kg/injection, schedule: Q01DX001 (ip), vehicle: other): 90 % of control

COc1ccc(OC)c2nc(-c3ccccc3)c(-c3ccccc3)nc12
T/C [4]: 98 % of control | T/C [5]: 97 % of control | T/C [14]: 104 % of control

CC(C)OC(=O)Nc1ccccc1F
T/C (endpoint: mean survival time, dose: 100.0 mg/kg/injection, schedule: Q01DX009 (ip), vehicle: other): 97 % of control | T/C (endpoint: mean survival time, dose: 200.0 mg/kg/injection, schedule: Q01DX009 (ip), vehicle: other): 96 % of control | T/C (endpoint: mean survival time, dose: 400.0 mg/kg/injection, schedule: Q01DX009 (ip), vehicle: other): 94 % of control

COC(=O)c1c(C(=O)OC)c(-c2ccc(Cl)c(Cl)c2)n2c1CCC2
T/C (endpoint: mean survival time, dose: 50.0 mg/kg/injection, schedule: Q01DX009 (ip), vehicle: Klucel (hydroxypropylcellulose) (HPC)): 91 % of control | T/C (endpoint: mean survival time, dose: 100.0 mg/kg/injection, schedule: Q01DX009 (ip), vehicle: Klucel (hydroxypropylcellulose) (HPC)): 88 % of control | T/C (endpoint: mean survival time, dose: 200.0 mg/kg/injection, schedule: Q01DX009 (ip), vehicle: Klucel (hydroxypropylcellulose) (HPC)): 98 % of control

O=C(OCC(F)(F)F)C(Cl)(Cl)Cl
T/C [9]: 97 % of control | T/C [10]: 107 % of control | T/C [11]: 107 % of control

CCC1(OC(=O)CN2CCN(CCCO)CC2)C(=O)OCc2c1cc1n(c2=O)Cc2cc3ccccc3nc2-1 (stereo not drawn)
T/C (endpoint: median survival time, dose: 6.25 mg/kg/injection, schedule: Q04DX002 (ip), vehicle: water): 106 % of control | T/C (endpoint: median survival time, dose: 12.5 mg/kg/injection, schedule: Q04DX002 (ip), vehicle: water): 107 % of control and 108 % of control | T/C (endpoint: median survival time, dose: 25.0 mg/kg/injection, schedule: Q04DX002 (ip), vehicle: water): 121 % of control and 111 % of control | T/C (endpoint: median survival time, dose: 50.0 mg/kg/injection, schedule: Q04DX002 (ip), vehicle: water): 120 % of control | T/C (endpoint: median survival time, dose: 100.0 mg/kg/injection, schedule: Q04DX002 (ip), vehicle: water): 170 % of control

From PubChem BioAssay AID256 (DTP/NCI, 2004)
